Test results published in patent US20060059579A1, “Model animals non-responsive to mycobacteria-origin lipoprotein/lipopeptide” (Japan Science and Technology Agency, priority 2002, published 2006).

How the values were obtained:
TLR1^-/- macrophages [1] = type: cell-based, mouse
TLR1 and TLR2 [2] = target: T1, TLR1 and TLR2 (Homo sapiens, UniProt O60603+Q15399); test: NF-κB pELAM-luciferase reporter assay in HEK 293 cells co-expressing TLR1 and TLR2; type: cell-based; set-up: expressed in transfected cells; host or cells: HEK 293 cells, transient transfection; details: co-expression of TLR1 with TLR2, 10 ng/ml for 8 h
Experimental: (§1) HEK 293 cells were transformed with TLR1, TLR2 and TLR6 expression vectors, and pELAM-luciferase reporter plasmid were used together. For normalization of transfection efficiency by lipofectamine 2000 (Invitrogen), the indicated vector was used with pELAM-luciferase reporter plasmid (J. Bio. Chem. 274, 10689, 1999) and pRL-TK (Promega) to transfect transiently […] cells. 24 h after transfection, the cells were stimulated with 10 ng/ml of Pam3CSK4 for 8 h. Then, the cells were lysed, and luciferase activity was measured by using Dual-luciferase reporter assay system (Promega) according to the manufacturer's instruction.

TLR1 and TLR2 [3] = target: T1, TLR1 and TLR2; test: Co-immunoprecipitation of HA-tagged TLR1 and Flag-tagged TLR2 in HEK293 cells; type: binding; set-up: expressed in transfected cells; host or cells: HEK293 cells
Experimental: HEK293 cells were co-transfected with 3 μg Flag-tagged TLR2, TLR4 or 6 μg HA-tagged TLR1. After 36 h, the cells were lysed in the lysis buffer containing 1.0% Nonidet P-40, 150 mM NaCl, 20 mM tris-HCl (pH 7.5), 5 mM EDTA and aprotease inhibitor cocktail tablet, Complete (Roche Diagnostics). The solution was pre-treated for 1 h with protein G-sepharose, and immunoprecipitated for 12 h by using 2 μg anti-Flag M2 antibody or 2 μg anti-HA 12 CA5 antibody. The beads were washed four times in the lysis buffer, and the immunoprecipitated proteins were eluted in SDS-PAGE sample buffer solution, separated on SDS-PAGE and transferred onto PVDF membrane. HA-tagged TLR1 was detected with anti-HA antibody (Roche Diagnostics) and HRP-tagged anti-mouse Ig antibody. Flag-tagged proteins were identified with the second antibody, HRP-conjugated anti-Flag M2 antibody. Then, the antibodies were detected by enhanced chemiluminescence system (Dupont).

TLR6 and TLR2 = target: T2, TLR6 and TLR2 (Homo sapiens, UniProt O60603); test: NF-κB pELAM-luciferase reporter assay in HEK 293 cells co-expressing TLR6 and TLR2; type: cell-based; details: co-expression of TLR6 and TLR2, 10 ng/ml for 8 h
T2 construct: expressed in transfected cells; host or cells: HEK 293 cells, transient transfection
Experimental: as §1

TLR2 = target: T3, TLR2 (Homo sapiens, UniProt O60603); test: NF-κB pELAM-luciferase reporter assay in HEK 293 cells expressing TLR2; type: cell-based; details: expression of TLR2, 10 ng/ml for 8 h
T3 construct: expressed in transfected cells; host or cells: HEK 293 cells, transient transfection
Experimental: as §1

[4] = test system: peritoneal macrophages of wild-type mice; type: cell-based, mouse
TLR2^-/- macrophages = details: Science 291, 1544, 2001; cited from earlier work
TLR1^-/- macrophages [5] = type: cell-based, mouse; remark: listed apart in the source

T1 sequence (Q15399 25-786, species assumed): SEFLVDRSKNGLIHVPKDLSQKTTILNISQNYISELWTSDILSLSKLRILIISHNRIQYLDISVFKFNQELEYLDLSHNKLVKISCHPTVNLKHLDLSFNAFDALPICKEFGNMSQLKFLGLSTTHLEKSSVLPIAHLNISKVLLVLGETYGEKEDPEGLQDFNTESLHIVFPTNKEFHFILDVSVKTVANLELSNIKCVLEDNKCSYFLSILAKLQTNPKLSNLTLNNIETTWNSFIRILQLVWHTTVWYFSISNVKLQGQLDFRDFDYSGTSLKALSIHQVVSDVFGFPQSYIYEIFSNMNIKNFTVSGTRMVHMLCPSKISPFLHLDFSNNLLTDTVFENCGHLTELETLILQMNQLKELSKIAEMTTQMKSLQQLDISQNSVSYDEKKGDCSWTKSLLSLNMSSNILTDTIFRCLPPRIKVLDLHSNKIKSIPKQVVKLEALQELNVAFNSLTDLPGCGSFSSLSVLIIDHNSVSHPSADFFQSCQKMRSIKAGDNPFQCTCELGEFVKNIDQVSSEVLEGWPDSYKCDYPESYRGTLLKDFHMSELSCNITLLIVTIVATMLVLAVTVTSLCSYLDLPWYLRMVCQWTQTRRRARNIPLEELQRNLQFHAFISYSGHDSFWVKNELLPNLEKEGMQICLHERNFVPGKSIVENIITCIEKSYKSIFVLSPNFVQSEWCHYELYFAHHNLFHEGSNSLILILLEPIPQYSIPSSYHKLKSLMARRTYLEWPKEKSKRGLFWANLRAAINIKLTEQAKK
T1 sequence (O60603 21-784, species assumed): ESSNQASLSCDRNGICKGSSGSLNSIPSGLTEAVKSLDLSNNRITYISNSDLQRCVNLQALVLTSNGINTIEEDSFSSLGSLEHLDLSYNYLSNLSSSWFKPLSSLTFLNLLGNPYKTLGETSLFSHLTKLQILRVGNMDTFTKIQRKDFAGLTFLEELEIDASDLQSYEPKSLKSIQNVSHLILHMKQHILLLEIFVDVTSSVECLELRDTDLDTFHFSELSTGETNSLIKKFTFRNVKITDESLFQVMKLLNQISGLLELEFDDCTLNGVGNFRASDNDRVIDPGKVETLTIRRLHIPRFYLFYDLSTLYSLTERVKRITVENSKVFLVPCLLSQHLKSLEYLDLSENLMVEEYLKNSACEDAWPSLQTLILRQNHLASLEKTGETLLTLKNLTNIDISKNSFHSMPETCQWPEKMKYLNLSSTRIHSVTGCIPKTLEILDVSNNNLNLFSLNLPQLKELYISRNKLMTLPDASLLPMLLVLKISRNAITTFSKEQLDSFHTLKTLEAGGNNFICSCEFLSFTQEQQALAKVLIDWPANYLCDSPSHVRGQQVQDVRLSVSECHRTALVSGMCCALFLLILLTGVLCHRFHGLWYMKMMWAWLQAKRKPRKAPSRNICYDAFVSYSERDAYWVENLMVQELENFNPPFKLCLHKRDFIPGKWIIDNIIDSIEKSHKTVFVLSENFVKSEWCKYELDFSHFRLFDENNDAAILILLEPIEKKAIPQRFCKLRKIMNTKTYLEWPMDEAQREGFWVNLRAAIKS
T3 sequence (O60603 21-784, species assumed): as above
T3 sequence (Q15399 25-786, species assumed, further chain): as the sequence (Q15399 25-786, species assumed) above
T2 sequence (O60603 21-784, species assumed): as the sequence (O60603 21-784, species assumed) above

With MALP-2 the TNFα production (TLR1^-/- macrophages [1]) was “responded normally”.

For “N-palmitoyl-S-dipalmitoyl glyceryl (Pam3) CSK4 [Pam3CSK4]”, the “NF-κB activation (luciferase activity)” value (TLR1 and TLR2 [2]) was “significantly enhanced the activation”, the TNFα production (TLR1^-/- macrophages [1]) was “significantly impaired” and the “extent of association between TLR1 and TLR2 on stimulation” value (TLR1 and TLR2 [3]) was “did not affect”. For the same substance, the “NF-κB activation (luciferase activity)” value (TLR6 and TLR2) was “did not augment the NF-κB activation” and the “NF-κB activation (luciferase activity)” value (TLR2) was “conferred the NF-κB activation”.

For “19 kD lipoprotein: Native 19-kD lipoprotein purified from Mycobacterium tuberculosis”, the TNFα production [4] is given as “generated TNFα in a dose-dependent manner”, the TNFα production (TLR1^-/- macrophages [1]) is given as “impaired” and the Cytokine production (TLR2^-/- macrophages) is given as “inhibited”. For the same substance, the IL-6 production (TLR1^-/- macrophages [5]) was “lower in TLR1^-/- macrophages compared with that of wild-type cells”.

With “N-palmitoyl-S-dilauryl glyceryl (N-Pam-S-Lau2)CSK4 [Lau2N-PamCSK4]” the TNFα production (TLR1^-/- macrophages [1]) was “considerably impaired”.

With “N-myristyl-S-dimyristyl glyceryl (Myr3) CSK4 [Myr3CSK4]” the TNFα production (TLR1^-/- macrophages [1]) was “impaired”.

For “N-lauryl-S-dilauryl gylceryl (Lau3)CSK4 [Lau3CSK4]”, the TNFα production (TLR1^-/- macrophages [1]) was “impaired”.
